Experimental data: patent publication US5514662A, “Use of amphotericin B derivatives as protease inhibitors” (priority 1991, dated 1996)
Read-outs that look alike come from different tables or passages of the source.

Legend:
trypsin = target: T1, trypsin (Bos taurus, UniProt P00760); assay: Inhibition of trypsin; format: biochemical
T1 sequence (P00760 24-246): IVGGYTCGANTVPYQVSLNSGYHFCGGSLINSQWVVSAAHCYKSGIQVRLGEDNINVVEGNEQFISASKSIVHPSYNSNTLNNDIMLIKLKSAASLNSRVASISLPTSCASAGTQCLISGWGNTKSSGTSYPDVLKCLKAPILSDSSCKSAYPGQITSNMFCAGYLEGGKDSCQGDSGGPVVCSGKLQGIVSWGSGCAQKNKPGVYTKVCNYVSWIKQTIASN

leucocyte elastase = assay: Activity of DABF-AmB on various proteases: leucocyte elastase; format: biochemical; details: 1 μM
Method: (§1) DABF-AmB was tested, at a concentration of 1 μM, on various proteases (papain, chymotrypsin, kallicrein, leucocyte elastase, cathopsin D and recombinant protease p10) under conditions and in the presence of substrates appropriate for each of the proteases tested.

chymotrypsin = assay: Activity of DABF-AmB on various proteases: chymotrypsin; format: biochemical; details: 1 μM
Method: as §1

papain = papain (Carica papaya, UniProt P00784); assay: Activity of DABF-AmB on various proteases: papain; format: biochemical; details: 1 μM
papain, sequence (P00784 134-345): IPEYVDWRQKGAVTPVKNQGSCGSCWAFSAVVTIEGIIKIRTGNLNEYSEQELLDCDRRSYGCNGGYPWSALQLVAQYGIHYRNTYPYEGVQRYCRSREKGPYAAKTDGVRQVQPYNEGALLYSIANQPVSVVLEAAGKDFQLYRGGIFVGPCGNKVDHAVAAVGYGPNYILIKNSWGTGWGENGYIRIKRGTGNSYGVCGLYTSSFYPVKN
Method: as §1

cathopsin D = assay: Activity of DABF-AmB on various proteases: cathopsin D; format: biochemical; details: 1 μM
Method: as §1

HIV-1 = assay: Reverse transcriptase activity in HIV-1 infected PBMCs; format: cell-based
Method: The T cells (Jurkat and CEM) used are very permissive to HIV infection. They are cultured in RPMI 1640 medium supplemented with 10% foetal calf serum, 2 mM of glutamine and a mixture of penicillin and streptomycin. The peripheral blood mononuclear cells are obtained from blood from healthy donors, isolated on a Ficoll Hypaque gradient and stimulated with 10 μg/ml of phytohaemagglutinin A (PHA), for two days, in RPMI 1640 medium supplemented, prior to the infection by HIV, with amikacin and vancomycin (10 mg/ml), polybrene (1 mg/ml) and anti-interferon gamma serum (5 U/ml). After infection, the PBMCs are cultured (10^5 per well) in flat-bottomed 96-well plates in the same RPMI 1640 medium (200 μl per well).
The PBMCs cells (2×10^6 /ml) are infected with the same viruses and under the same conditions as the Jurkat or CEM cells. They are then washed and resuspended in fresh culture medium in flat-bottomed 96-well plates (10^5 cells per well in […]).
The reverse transcriptase activity is determined at the indicated times using the culture supernatant, according to the procedure described by REY et al., Biochem. Res. Comm. 121, 126-133 (1984).
PBMCs isolated from healthy individuals are infected with HIV-1. The production of antigen p24 as well as the reverse transcriptase activity can be detected in the supernatants of cultures infected 3 days after the infection. The maximum reverse transcriptase activity and p24 synthesis are observed between the 6th and 7th day, and the 5th and 6th day respectively. No cell death is observed at this time.
The infected PBMCs are treated continuously as described above for the Jurkat and CEM cells, using increasing concentrations of DABF-AmB.
The effect of DABF-AmB on the reverse transcriptase activity and on the secretion of p24 is evaluated on the 6th day.

human thymocytes = assay: Distribution of CD4 and CD8 cells in uninfected activated thymocytes; format: cell-based
Method: Human thymuses were obtained during corrective heart surgery operations on 3 to 7 year old children. The tissues were cut into fragments and the red blood cells were removed by treating with […] buffer. After washing in PBS buffer, cellular suspensions were prepared in an RPMI 1640 medium containing 10% of human serum type […]. Dead cells were removed by passing over a sterile nylon wool column.
The cells were infected with HIV LAV/BRU as indicated above in the general procedures, and then re-inoculated in the presence of PHA, of anti-CD2 or anti-CD3 antibodies and of IL2 and cultured for 10 days at a rate of 1×10^7 cells/ml. After 10 days, viral production was evaluated by measuring the RT activity in the supernatants and the distribution of CD4/CD8 was evaluated by double fluorescence flow cytometry by means of FITC-labelled anti-CD4 antibodies (OKT4) and phycoerythrin-labelled anti-CD8 antibodies (OKT8). DABF-AmB was added to the cultures immediately after infection and maintained during the entire duration of the culture.

LTR of HIV = assay: Early phases of HIV infection: transactivation of LTR-LacZ in CD4 HeLa cells (blue colonies); format: cell-based, HIV-1; details: 10 μM, 24 hours after infection
Method: HeLa cells transfected with the CD4 gene and capable of being infected by HIV, carrying the bacterial gene LacZ placed under the control of the LTR of HIV ROCANCOURT et al., J. Virol., 64:2660-2668, (1990)!, were infected with HIV-1BRU. […] This detection was carried out after fixing the cells by incubating for one hour in-the presence of 5-bromo-4-chloro-3-indoyl-β-D-[…] and enzyme substrate.

HIV2-rod = assay: Formation of syncytia in HUT78 cells infected with HIV2-rod; format: cell-based, HIV-2
Method: HUT78 cells were inoculated in 96-well plates in an amount of 2×10^4 cells per well, in […]. They were infected with various viral concentrations and DABF-AmB was added immediately after the infection, at various concentrations. The formation of syncytia was evaluated after 3 and 5 days by direct reading under an inverted microscope (semi-quantitative test).

HIV = assay: Viral expression in reactivated infected CD4 cells from patients (p24 ELISA); format: cell-based; details: Human immunodeficiency virus 1, 240 h, 7 patients tested
From the text: The activation of infected CD4+cells is known to stimulate the production of the virus. The effect of DABF-AmB was therefore tested on the vital expression in cells from AIDS patients reactivated in vitro by anti-CD3, by anti-CD28, by PMA (phorbol myristate acetate) or by soluble anti-CD3.
PBMCs from patients (<300 CD4) were isolated on a Ficoll gradient using blood. The CD4 cells were isolated by cell sorting using a flow cytometer (FACS-Star, Becton-Dickinson, Mountain View, Calif.) after OKT4-FITC labelling. The CD4 cells were washed again and then re-inoculated as indicated in 5 and activated either with anti-CD3 or anti-CD28 antibodies or with PMA. Viral expression was evaluated after 10 days by ELISA assay of p24 in the supernatants.

In the case of `C[C@@H]1[C@H](O)[C@@H](C)/C=C/C=C/C=C/C=C/C=C/C=C/C=C/[C@H](O[C@@H]2O[C@H](C)[C@@H](O)[C@H](NCC(=O)[C@@H](O)[C@@H]3OC(c4ccccc4)OC[C@H]3O)[C@@H]2O)C[C@@H]2O[C@](O)(C[C@@H](O)C[C@@H](O)[C@H](O)CC[C@@H](O)C[C@@H](O)CC(=O)O[C@H]1C)C[C@H](O)[C@H]2C(=O)O` (stereo partly drawn) [DABF-AmB, 1-deoxy-1-amino-4,6-O-benzylidene-D-fructosyl-AmB], the inhibition at 1 µM (trypsin; 1 μM, FIG. 1, read-out: % inhibition of trypsin relative to a control without inhibitor) is reported as greater than 60%, the inhibition at 100 µM (trypsin; 10^-4 M) is reported as 100% and the “inhibition of trypsin (in words)” value (trypsin; 10^-4 M) is reported as “Total inhibition”. The inhibition at 10 µM (trypsin; 10^-5 M) was 95%, the inhibition at 1 µM (trypsin; 10^-6 M, read-out: % of inhibition of trypsin) was 50% and the inhibition at 0.1 µM (trypsin; 10^-7 M) was 20%. For the same molecule, the “inhibition of leucocyte elastase” value (leucocyte elastase) was “inhibits”, the inhibition of chymotrypsin (chymotrypsin) was “does not inhibit” and the inhibition of papain (papain) was “does not inhibit”. The “inhibition of cathopsin D” value (cathopsin D) was “does not inhibit”, the inhibition at 10 µM (HIV-1; Human immunodeficiency virus 1, PBMC, 144 h, PBMCs, 10 μM, 6th day, N=3) was 92 ± 4% and the “increase in the anti-HIV action in PBMCs” value (HIV-1; concentrations above 20 μM) was “do not bring about a significant increase”. The “anti-HIV inhibition in PBMCs (in words)” value (HIV-1; concentrations below 1 μM) was “only a low inhibition”, the “distribution of the CD4 and CD8 cells in uninfected thymocytes” value (human thymocytes; even at 10 μM, PHA, anti-CD2 or anti-CD3 activated) was “does not significantly modify” and the “CD4+ CD8+ population in uninfected thymocytes” value (human thymocytes; up to 10 μM) was “slight increase”. For the same molecule, the “inhibition of appearance of blue colonies” value (LTR of HIV) was “completely inhibits”, the formation of syncytia (HIV2-rod; 5 μM, 10 TCID50, 3 days) was “- and +” and the formation of syncytia (HIV2-rod; 5 μM, 10 TCID50, 5 days) was “- and +”. For the same molecule, the formation of syncytia (HIV2-rod; 5 μM, 100 TCID50, 3 days) was “+”, the formation of syncytia (HIV2-rod; 10 μM, 10 TCID50, 3 days) was “-” and the formation of syncytia (HIV2-rod; 10 μM, 10 TCID50, 5 days) was “-”. For the same molecule, the formation of syncytia (HIV2-rod; 10 μM, 100 TCID50, 3 days) was “+ and -”, the formation of syncytia (HIV2-rod; 50 μM, 10 TCID50, 5 days) was “-” and the formation of syncytia (HIV2-rod; 50 μM, 100 TCID50, 3 days) was “-”. The formation of syncytia (HIV2-rod; 50 μM, 100 TCID50, 5 days) was “-”, the formation of syncytia (HIV2-rod; 100 μM, 100 TCID50, 3 days) was “-” and the formation of syncytia (HIV2-rod; 100 μM, 100 TCID50, 5 days) was “-”. For the same molecule, the “inhibition of formation of syncytia (in words)” value (HIV2-rod; HUT78, HIV-2) was “in a dose-dependent manner” and the inhibition at 10 µM (HIV) was greater than 90%.
